# In paper PMC5421785, “Citrullination only infrequently impacts peptide binding to HLA class II MHC” (PLoS ONE, 2017):
# Where two headings read alike, the source gives them in different places. Square brackets hold non-standard residues; d marks the D form. Ends that are not written are not given here. Peptide text beside a SMILES is read from it. Cit = NC(=O)NCCC[C@H](N)C(=O)O
# Legend:
# HLA-DRB1*04:01 = molecular target: T1, HLA-DRB1*04:01 (Homo sapiens, UniProt P01903+P01911, A100K/A169T/F76Y/I96L/K127E/L162R/M171V/N62H/P40V/Q125Y/R42H/S133A/S149N/S66Y/V115G/V209L/W38E); experiment: HLA class II peptide binding, inhibition of radiolabeled peptide binding to purified MHC
# T1 construct: EBV transformed homozygous cell lines were used as sources of MHC molecules; endogenous in cells; host or cells: EBV transformed homozygous cell lines
# HLA-DRB1*01:01 = molecular target: T2, HLA-DRB1*01:01 (Homo sapiens, UniProt P01903+P01911, A100R/D57E/F55L/F60I/F76Y/I96L/L162R/M171V/P40L/Q125E/R42F/V115G/Y59C); experiment: as above
# T2 construct: EBV transformed homozygous cell lines were used as sources of MHC molecules; endogenous in cells; host or cells: EBV transformed homozygous cell lines
# [1] = citrullinated 15-mer (X), purified MHC, inhibition of radiolabeled peptide binding, dash = IC50 >40,000 nM, read-out: DRB1*04:01 binding capacity, Cit peptide (IC50 nM)
# [2] = citrullinated 15-mer (X), purified MHC, inhibition of radiolabeled peptide binding, dash = IC50 >40,000 nM, read-out: DRB1*01:01 binding capacity, Cit peptide (IC50 nM)
# [3] = wild-type (unmodified Arg) 15-mer peptide, purified HLA-DRB1*04:01, read-out: DRB1*04:01 binding capacity, WT peptide (IC50 nM)
# [4] = wild-type (unmodified Arg) 15-mer peptide, purified HLA-DRB1*01:01, read-out: DRB1*01:01 binding capacity, WT peptide (IC50 nM)
Compound,IC50 (HLA-DRB1*04:01; [1]) [nM],IC50 (HLA-DRB1*01:01; [2]) [nM],IC50 (HLA-DRB1*04:01; [3]) [nM],IC50 (HLA-DRB1*01:01; [4]) [nM],other results
CC(C)C[C@H](NC(=O)[C@H](CCC(=O)O)NC(=O)[C@H](C)NC(=O)[C@H](CC(C)C)NC(=O)[C@@H](N)CC(C)C)C(=O)N[C@@H](CCC(=O)O)C(=O)N[C@@H](CCC(N)=O)C(=O)N[C@@H](CC(C)C)C(=O)N[C@@H](CCCCN)C(=O)NCC(=O)N[C@@H](CCC(N)=O)C(=O)NCC(=O)N[C@@H](CCCCN)C(=O)N[C@@H](CO)C(=O)N[C@@H](CCCNC(N)=O)C(=O)O [LLAELEQLKGQGKSX] (H-LLAELEQLKGQGKS[Cit]-OH),> 40000,428,–,–,–
GPTGVTGPKGARGAQ [Collagen 876 WT],–,–,> 40000,952,–
CC[C@H](C)[C@H](NC(=O)[C@H](C)NC(=O)[C@H](CC(=O)O)NC(=O)[C@H](C)NC(=O)[C@H](CC(C)C)NC(=O)[C@H](CO)NC(=O)[C@@H](N)Cc1ccccc1)C(=O)N[C@@H](CC(N)=O)C(=O)N[C@H](C(=O)N[C@@H](CCC(=O)O)C(=O)N[C@@H](Cc1ccccc1)C(=O)N[C@@H](CCCCN)C(=O)N[C@@H](CC(N)=O)C(=O)N[C@H](C(=O)N[C@@H](CCCNC(N)=O)C(=O)O)[C@@H](C)O)[C@@H](C)O [FSLADAINTEFKNTX] (H-FSLADAINTEFKNT[Cit]-OH),22600,41,–,–,–
DNLAEDIMRLREKLQ [Vimentin 176 WT],–,–,–,–,"IC50 (HLA-DRB1*04:01; read-out: DRB1*04:01 binding capacity, WT peptide (IC50 nM)): > 40000 nM; IC50 (HLA-DRB1*01:01; read-out: DRB1*01:01 binding capacity, WT peptide (IC50 nM)): 4570 nM"
CSCC[C@H](NC(=O)[C@H](Cc1ccc(O)cc1)NC(=O)[C@H](CCC(N)=O)NC(=O)[C@H](CC(C)C)NC(=O)[C@@H]1CCCN1C(=O)[C@H](CC(=O)O)NC(=O)[C@@H]1CCCN1C(=O)CNC(=O)[C@H](CCCCN)NC(=O)[C@H](CCC(=O)O)NC(=O)[C@H](CCCNC(=N)N)NC(=O)[C@@H]1CCCN1C(=O)CNC(=O)[C@@H](N)CC(C)C)C(=O)N[C@@H](CCCNC(N)=O)C(=O)O [LGPREKGPDPLQYMX] (H-LGPREKGPDPLQYM[Cit]-OH),–,–,–,–,"IC50 (HLA-DRB1*04:01; citrullinated peptide as listed (X at Cit position), read-out: DRB1*04:01 binding capacity Cit peptide (IC50 nM)): > 40000 nM; IC50 (HLA-DRB1*04:01; value of the wild-type (non-citrullinated) counterpart of the listed peptide, read-out: DRB1*04:01 binding capacity WT peptide (IC50 nM)): > 40000 nM; IC50 (HLA-DRB1*01:01; citrullinated peptide as listed (X at Cit position), read-out: DRB1*01:01 binding capacity Cit peptide (IC50 nM)): 19700 nM"
PPGPQGPAGEQGPRG [Collagen 121 WT],–,–,> 40000,22400,–

# Now from value to compound, other results behind:
IC50 (HLA-DRB1*04:01; [1]) [nM],IC50 (HLA-DRB1*01:01; [2]) [nM],IC50 (HLA-DRB1*04:01; [3]) [nM],IC50 (HLA-DRB1*01:01; [4]) [nM],Compound,other results
–,–,3520,52,EIATYRKLLEGEESR [Vimentin 396 WT],–
1410,578,–,–,CC(C)C[C@H](NC(=O)[C@H](CC(N)=O)NC(=O)[C@H](CC(=O)O)NC(=O)[C@H](CCCNC(N)=O)NC(=O)[C@H](CCC(=O)O)NC(=O)[C@@H](NC(=O)[C@H](CCC(=O)O)NC(=O)[C@@H](NC(=O)[C@H](CCCNC(=N)N)NC(=O)[C@H](C)NC(=O)[C@H](CCCCN)NC(=O)[C@H](CC(=O)O)NC(=O)[C@@H](N)CC(N)=O)C(C)C)C(C)C)C(=O)N[C@@H](C)C(=O)N[C@@H](CCC(=O)O)C(=O)O [NDKARVEVEXDNLAE] (H-NDKARVEVE[Cit]DNLAE-OH),–
980,1080,–,–,CSCC[C@H](NC(=O)[C@H](CCCNC(=N)N)NC(=O)[C@H](CCCNC(N)=O)NC(=O)[C@H](Cc1ccc(O)cc1)NC(=O)[C@H](CO)NC(=O)[C@H](CO)NC(=O)[C@H](CO)NC(=O)[C@H](CO)NC(=O)[C@@H](NC(=O)[C@H](CO)NC(=O)[C@H](CCCNC(=N)N)NC(=O)[C@@H](NC(=O)[C@H](CO)NC(=O)[C@@H](N)CCSC)[C@@H](C)O)C(C)C)C(=O)N[C@@H](Cc1ccccc1)C(=O)O [MSTRSVSSSSYXRMF] (H-MSTRSVSSSSY[Cit]RMF-OH),–
17100,19600,–,–,CC[C@H](C)[C@H](NC(=O)[C@H](CC(=O)O)NC(=O)[C@H](CCC(=O)O)NC(=O)[C@H](C)NC(=O)[C@H](CC(C)C)NC(=O)[C@H](CC(N)=O)NC(=O)[C@H](CC(=O)O)NC(=O)[C@H](CCCNC(=N)N)NC(=O)[C@H](CCC(=O)O)NC(=O)[C@@H](NC(=O)[C@H](CCC(=O)O)NC(=O)[C@@H](N)C(C)C)C(C)C)C(=O)N[C@@H](CCSC)C(=O)N[C@@H](CCCNC(N)=O)C(=O)N[C@@H](CC(C)C)C(=O)O [VEVERDNLAEDIMXL] (H-VEVERDNLAEDIM[Cit]L-OH),–
